Experimental data reported in patent publication US20090093011A1, “Biosensors for ligand-directed functional selectivity” (priority 2007, published 2009).
Entries after “also recorded” stand apart in the source; their conditions may differ. Read-outs that look alike come from different tables or passages of the source.

Tests used:
β2AR [1] = target: T1, β2AR (Homo sapiens, UniProt P07550); conditions: binding affinity reference value from literature sources; cited from earlier work
β2AR [2] = target: T1, β2AR; experiment: Ligand-induced DMR signal, RWG biosensor, quiescent A431 cells; type: cell-based; parameters: A431 cells endogenously express large numbers of the β2AR; endogenous in cells; host or cells: A431 (human epidermoid carcinoma), quiescent; conditions: for EC50: DMR response at assay time of 50 min; for t1/2: P-DMR event, single phase exponential association fit; for N-DMR (pm): amplitude of N-DMR event; for P-DMR (pm): amplitude of P-DMR event; for t1/2 of the P-DMR event: one-phase exponential association; for type of DMR signal induced by the ligand alone: saturating concentration, quiescent A431 cells; for transition time (τ in seconds): time for the P-DMR event to occur; for t1/2 of single-phase exponential decay of EC50 with assay time: EC50 as a function of assay time (FIG. 3c)
Method: Cell culture—Human epidermoid carcinoma A431 cells (American Type Cell Culture) were grown in Dulbecco's modified Eagle's medium (DMEM) supplemented with 10% fetal bovine serum (FBS), 4.5 g/liter glucose, 2 mM glutamine, and antibiotics. About 1.8×10^4 cells at passage 3 to 8 suspended in 50 μL the DMEM medium containing 10% FBS were placed in each well of a 384-well microplate, and were cultured at 37° C. under air/5% CO2 for about 1 day, followed by about 20 hr starvation through continuously culturing in the serum-free DMEM.
Optical biosensor system and cell assays—A Corning® Epic® wavelength interrogation system with an on-board liquid handling system was used. The system is standalone and consists of a temperature-control unit, an optical detection unit, and an on-board liquid handling unit with robotics. The temperature-control unit minimizes temperature fluctuations, if any. Inside this unit, there are two side-by-side stacks for holding both the sensor microplates and compound source plates. Once stable temperature is reached (typically within 1 hr), a sensor microplate is transferred by the robotics into the plate holder right above the detection system, while a source plate is moved to an appropriate compartment so that it is readily addressable by the on-board liquid handling unit.
The detection unit has integrated fiber optics to measure the wavelength shift of the resonant lights due to ligand-induced dynamic mass redistribution in living cells. A broadband white light source centered on 830 nm, generated through a fiber optic and a collimating lens at nominally normal incidence through the bottom of the microplate, is used to illuminate a small region of the grating surface. A detection fiber for recording the reflected light is bundled with the illumination fiber. A series of illumination/detection heads are arranged in a linear fashion, so that reflection spectra are collected from the 16-wells within the same column of a 384 well microplate at once.
(§1) For kinetic assays, the cells were washed with HBSS (Hanks Balanced Salt Solution with 20 mM HEPES) buffer. After 1 hour incubation within the detection system, the sensor plate was scanned and a baseline response was recorded. Then, compound solutions were transferred into the sensor plate using the on-board liquid handling system, and the cell responses were then recorded for another period of time. The lid of the sensor microplates was on throughout the assay, except of a short period of time (about 1 min.) when the compounds were introduced. The plate lid was handled automatically by the robotics. All studies were carried out at controlled temperature (28° C.).
Statistical analysis—Unless specifically mentioned, three replicates were carried out for each measurement or each compound. The standard deviation was derived from these measurements (n=3). […] All dose-dependent responses were analyzed using non-linear regression method with Prism software (available from Graph Pad).
Ligand-specific DMR signals—β2AR in A431 cells were selected as a model system for assaying ligand-directed functional selectivity, because of well-established signaling pathways of the β2AR in A431 as well as the availability of a rich source of structurally similar ligands having wide spectrum of efficacies. A431 cells endogenously express large numbers of the β2AR (about 34,000 copies per cells). To examine the functional selectivity of β2AR ligands, we used RWG biosensor to follow change in local mass density or distribution as a function of time upon stimulation with a saturating concentration of a ligand. The RWG biosensor detects an integrated response, termed as dynamic mass redistribution (DMR) signal, mediated through ligand-induced activation of the β2AR. The DMR signal approximates a global representation of the receptor activation and signaling, particularly for signaling events associated with dynamic relocation of cellular matters at or near the sensor surface.

dynamin = conditions: 2 nM epinephrine after pretreatment with 25 μM DIPC
Excerpt: Although not bound by theory, a receptor internalization process is believed to result in a loss in local mass density or distribution within the sensing volume of the biosensor, leading to a negative contribution to the overall response. Since dynamin is known to play an important role in the ligand-induced β2AR internalization, we examined the effect of inhibiting dynamin activity on the ligand responses.

β2AR [3] = target: T1, β2AR; conditions: βARK- and PKA-mediated phosphorylation; cited from earlier work
β2AR [4] = target: T1, β2AR; experiment: Catechol co-stimulation of β2AR ligand-induced DMR signals in A431 cells; type: cell-based; parameters: A431 cells endogenously express large numbers of the β2AR; endogenous in cells; host or cells: A431 (human epidermoid carcinoma), quiescent; conditions: catechol of 500 μM; pindolol of 10 nM, epinephrine of 100 nM
Excerpt: The ability of catechol to modulate the DMR signals induced by other ligands was examined. […] In embodiments the signaling of 600 or 610 can be completely separated, or can partially overlap.

β2AR [5] = target: T1, β2AR; conditions: dopamine of <100 μM; antagonist 1 μM
Method: as §1

T1 sequence (P07550 whole entry): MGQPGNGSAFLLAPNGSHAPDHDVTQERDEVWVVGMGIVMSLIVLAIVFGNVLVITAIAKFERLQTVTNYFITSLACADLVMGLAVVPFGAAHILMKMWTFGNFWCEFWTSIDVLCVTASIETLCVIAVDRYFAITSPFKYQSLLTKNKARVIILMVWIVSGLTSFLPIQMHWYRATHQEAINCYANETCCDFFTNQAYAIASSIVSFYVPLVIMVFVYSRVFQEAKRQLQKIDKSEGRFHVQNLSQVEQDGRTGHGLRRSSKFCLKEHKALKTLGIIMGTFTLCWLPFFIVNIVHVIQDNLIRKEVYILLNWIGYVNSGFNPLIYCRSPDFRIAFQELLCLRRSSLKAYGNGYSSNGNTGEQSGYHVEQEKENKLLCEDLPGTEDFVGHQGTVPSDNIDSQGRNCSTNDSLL

Compound	t1/2 (β2AR [2])	N-DMR (pm) (β2AR [2])	P-DMR (pm) (β2AR [2])	t1/2 of the P-DMR event (β2AR [2])	transition time (τ in seconds) (β2AR [2])	maximal amplitude of the P-DMR event, normalized to the epinephrine response (β2AR [2]; n=16)	type of DMR signal induced by the ligand alone (β2AR [2])	other results
CNC[C@H](O)c1ccc(O)c(O)c1 [epinephrine]	8.68 ± 0.417 min	37 ± 7 pm	232 ± 12 pm	–	132 ± 20 s	100%	biphasic response	t1/2 for the P-DMR event (dynamin): about 200 seconds; transition time (τ) (dynamin): about 120 sec; kobs of receptor phosphorylation (β2AR [3]): about 20 sec; transition time (τ) (β2AR [2]): about 140 sec; t1/2 of single-phase exponential decay of EC50 with assay time (β2AR [2]): about 203 sec; duration of initial N-DMR (β2AR [2]; epinephrine response, FIG. 1): about 130 sec; duration of subsequent P-DMR (β2AR [2]; epinephrine response, FIG. 1): > 10 min; DMR signal on co-stimulation with catechol compared with individual signals (β2AR [4]): almost identical to that induced by 100 nM epinephrine alone
CNCC(O)c1ccccc1 (centres unmarked) [halostachine]	–	–	–	–	–	–	–	−logKi (ref.) (β2AR [1]): 5.08(3); maximal amplitude of the P-DMR event, normalized to the epinephrine response (β2AR [2]): 90%; EC50 (β2AR [2]): 23.4 µM
NCCc1ccccc1 [phenylethylamine]	–	–	–	–	–	–	complicated DMR signal	–
CC(C)NCC(O)COc1cccc2[nH]ccc12 (centres unmarked) [pindolol]	8.6 ± 0.783 min	0 ± 4 pm	142 ± 19 pm	–	250 ± 15 s	61%	initial steady phase (termed as net-zero DMR) with a short duration, and a succeeding P-DMR	DMR signal on co-stimulation with catechol compared with individual signals (β2AR [4]): closely resembled, but was not identical to, the sum of the two DMR signals; also recorded: close to the sum of the two DMR signals obtained individually
O=C(CCCN1CCC2(CC1)C(=O)NCN2c1ccccc1)c1ccc(F)cc1 [spiperone]	–	–	–	–	–	–	–	inhibition of the dopamine response (β2AR [5]): neither 1 μM SCH 23390 nor 1 μM spiperone
NCCc1ccc(O)cc1 [tyramine]	–	–	–	–	–	–	complicated DMR signal	–

The next lines start with results.

t1/2 (β2AR [2])	N-DMR (pm) (β2AR [2])	P-DMR (pm) (β2AR [2])	t1/2 of the P-DMR event (β2AR [2])	transition time (τ in seconds) (β2AR [2])	Compound	maximal amplitude of the P-DMR event, normalized to the epinephrine response (β2AR [2]; n=16)	type of DMR signal induced by the ligand alone (β2AR [2])	other results
4.82 ± 0.7 min	0 ± 3 pm	152 ± 13 pm	about 289 s	130 ± 15 s	Oc1ccccc1O [catechol]	66%	initial steady phase (termed as net-zero DMR) with a short duration, and a succeeding P-DMR	−logKi (ref.) (β2AR [1]): 3.80(3); transition time (τ) (β2AR [2]): about 140 sec; EC50 (β2AR [2]): 501 µM
8 ± 0.383 min	31 ± 4 pm	214 ± 32 pm	about 480 s	252 ± 15 s	NCCc1ccc(O)c(O)c1 [dopamine]	–	biphasic response	–
9.32 ± 0.25 min	29 ± 5 pm	209 ± 16 pm	–	180 ± 17 s	NC[C@H](O)c1ccc(O)c(O)c1 [norepinephrine]	91%	biphasic response	t1/2 of single-phase exponential decay of EC50 with assay time (β2AR [2]): about 248 sec
16.2 ± 2.5 min	0 ± 5 pm	75 ± 18 pm	about 974 s	260 ± 26 s	O=C(NCCNCC(O)COc1ccc(O)cc1)N1CCOCC1 (centres unmarked) [xamoterol]	–	initial steady phase (termed as net-zero DMR) with a short duration, and a succeeding P-DMR	–
